target: T1, human APJ receptor (Homo sapiens, UniProt P35414); test: Intracellular cAMP Accumulation Assay (APJ hcAMP, HTRF); type: cell-based; conditions: read-out: hAPJ cAMP EC50 Potency range
T1 construct: expressed in transfected cells; host or cells: HEK293
T1 sequence (P35414 1-380): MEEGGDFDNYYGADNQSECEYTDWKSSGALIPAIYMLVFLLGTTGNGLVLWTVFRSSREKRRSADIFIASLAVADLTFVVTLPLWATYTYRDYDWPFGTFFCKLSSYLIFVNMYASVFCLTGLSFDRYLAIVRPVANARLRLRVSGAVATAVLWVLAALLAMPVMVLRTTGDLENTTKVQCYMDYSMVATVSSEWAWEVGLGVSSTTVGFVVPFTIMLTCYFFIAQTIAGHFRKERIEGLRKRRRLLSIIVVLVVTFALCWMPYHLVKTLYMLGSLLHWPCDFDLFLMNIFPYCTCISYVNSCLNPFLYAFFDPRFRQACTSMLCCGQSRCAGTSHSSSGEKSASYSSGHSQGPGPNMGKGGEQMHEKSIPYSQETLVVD
Outline: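 Stably transfected HEK293 cells (5,000/well) incubated 30 min at room temperature with serially diluted compound, […] and 2 μM forskolin. cAMP measured by HTRF after 60 min with detection reagents, quantified against a cAMP standard curve; EC50 from variable-slope sigmoidal fit of inhibition of forskolin-stimulated cAMP.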

Row | SMILES | EC50 [nM]
1 | CCOCc1nc(=O)c(C(=O)N2CCC(Cc3ccc(F)cc3)CC2)c(O)n1-c1c(OC)cccc1OC [Example 374, 1-(2,6-dimethoxyphenyl)-2-(ethoxymethyl)-5-(4-(4-fluorobenzyl)piperidine-1-carbonyl)-6-hydroxypyrimidin-4(1H)-one] | 0.01 to 10
2 | CCOCc1nc(=O)c(C(=O)N2CCC(Cc3ccc(Cl)cc3)CC2)c(O)n1-c1c(OC)cccc1OC [Example 375, 5-(4-(4-chlorobenzyl)piperidine-1-carbonyl)-1-(2,6-dimethoxyphenyl)-2-(ethoxymethyl)-6-hydroxypyrimidin-4(1H)-one] | 0.01 to 10
3 | CCOCc1nc(=O)c(C(=O)N2CC[C@H](OCc3ccccc3)C2)c(O)n1-c1c(OC)cccc1OC [Example 376, (S)-5-(3-(benzyloxy)pyrrolidine-1-carbonyl)-1-(2,6-dimethoxyphenyl)-2-(ethoxymethyl)-6-hydroxypyrimidin-4(1H)-one] | 0.01 to 10
4 | CCOCc1nc(=O)c(C(=O)N2CCC(Oc3ccc(Cl)cc3)CC2)c(O)n1-c1c(OC)cccc1OC [Example 377, 5-(4-(4-chlorophenoxy)piperidine-1-carbonyl)-1-(2,6-dimethoxyphenyl)-2-(ethoxymethyl)-6-hydroxypyrimidin-4(1H)-one] | 0.01 to 10
5 | CCOCc1nc(=O)c(C(=O)N2CCC(Oc3cc(F)ccc3Cl)CC2)c(O)n1-c1c(OC)cccc1OC [Example 378, 5-(4-(2-chloro-5-fluorophenoxy)piperidine-1-carbonyl)-1-(2,6-dimethoxyphenyl)-2-(ethoxymethyl)-6-hydroxypyrimidin-4(1H)-one] | 0.01 to 10
6 | CCOCc1nc(=O)c(C(=O)N2CCC(c3ccccc3F)CC2)c(O)n1-c1c(OC)cccc1OC [Example 379, 1-(2,6-dimethoxyphenyl)-2-(ethoxymethyl)-5-(4-(2-fluorophenyl)piperidine-1-carbonyl)-6-hydroxypyrimidin-4(1H)-one] | 0.01 to 10
7 | CCCCc1nc(=O)c(C(=O)N2CCC(Cc3ccc(C(F)(F)F)cc3)CC2)c(O)n1-c1c(OC)cccc1OC [Example 380, 2-butyl-1-(2,6-dimethoxyphenyl)-6-hydroxy-5-(4-(4-(trifluoromethyl)benzyl)piperidine-1-carbonyl)pyrimidin-4(1H)-one] | 0.01 to 10
8 | CCCCc1nc(=O)c(C(=O)N2CCC(Oc3ccc(C(C)(C)C)cc3)CC2)c(O)n1-c1c(OC)cccc1OC [Example 381, 2-butyl-5-(4-(4-(tert-butyl)phenoxy)piperidine-1-carbonyl)-1-(2,6-dimethoxyphenyl)-6-hydroxypyrimidin-4(1H)-one] | 10 to 100
9 | CCCCc1nc(=O)c(C(=O)N2CCC(Oc3ccccc3Cl)CC2)c(O)n1-c1c(OC)cccc1OC [Example 382, 2-butyl-5-(4-(2-chlorophenoxy)piperidine-1-carbonyl)-1-(2,6-dimethoxyphenyl)-6-hydroxypyrimidin-4(1H)-one] | 0.01 to 10
10 | CCCCc1nc(=O)c(C(=O)N2CCC(Oc3cccc(F)c3Cl)CC2)c(O)n1-c1c(OC)cccc1OC [Example 383, 2-butyl-5-(4-(2-chloro-3-fluorophenoxy)piperidine-1-carbonyl)-1-(2,6-dimethoxyphenyl)-6-hydroxypyrimidin-4(1H)-one] | 0.01 to 10
11 | CCCCc1nc(=O)c(C(=O)N2CCC(Oc3cc(F)ccc3Cl)CC2)c(O)n1-c1c(OC)cccc1OC [Example 385, 2-butyl-5-(4-(2-chloro-5-fluorophenoxy)piperidine-1-carbonyl)-1-(2,6-dimethoxyphenyl)-6-hydroxypyrimidin-4(1H)-one] | 0.01 to 10
12 | CCCCc1nc(=O)c(C(=O)N2CCC(Oc3cc(F)cc(F)c3Cl)CC2)c(O)n1-c1c(OC)cccc1OC [Example 386, 2-butyl-5-(4-(2-chloro-3,5-difluorophenoxy)piperidine-1-carbonyl)-1-(2,6-dimethoxyphenyl)-6-hydroxypyrimidin-4(1H)-one] | 0.01 to 10
13 | CCCCc1nc(=O)c(C(=O)N2CCC(Oc3cccc(F)c3F)CC2)c(O)n1-c1c(OC)cccc1OC [Example 387, 2-butyl-5-(4-(2,3-difluorophenoxy)piperidine-1-carbonyl)-1-(2,6-dimethoxyphenyl)-6-hydroxypyrimidin-4(1H)-one] | 0.01 to 10
14 | CCCCc1nc(=O)c(C(=O)N2CCN(Cc3cccc(F)c3F)CC2)c(O)n1-c1c(OC)cccc1OC [Example 388, 2-butyl-5-(4-(2,3-difluorobenzyl)piperazine-1-carbonyl)-1-(2,6-dimethoxyphenyl)-6-hydroxypyrimidin-4(1H)-one] | 0.01 to 10

— patent publication US10590113B2, “6-hydroxy-4-oxo-1,4-dihydropyrimidine-5-carboxamides as APJ agonists” (priority 2016, dated 2020)
